Source: patent US10744146B2, “Composition having effects of preventing or ameliorating conditions or diseases caused by brain hypofunction” (SUNTORY HOLDINGS LIMITED, priority 2001, dated 2020)

Legend:
old male Fischer rats = assay: Probe test after Morris water maze learning (time in quadrant where escape platform used to be); assay type: in vivo, rat; conditions: for time spent in the quadrant (¼) where the escape platform used to be, mean±standard deviation: old rats 21 months
Description: A Morris water maze learning test was conducted around the third month of the experiment (age of old rats: 21 months, age of young rats: 7 months). The Morris water maze test is a learning test based on spatial recognition in which water stained black with ink is filled (height of water level: 20 cm) into a water tank (diameter: 120 cm, height: 35 cm), a rat is placed on an escape platform of a size (diameter: 11.5 cm, height: 19 cm) that is just large enough for the rat to stand on (the escape platform is located beneath the surface of the water and cannot be seen by rats swimming in the water tank), the rat on which the learning test is to be performed is placed in the water tank at a predetermined location in the tank (starting point), and then forced to swim to the escape platform. This test is recognized to have a correlation with the hippocampus that governs memory, and is widely used in the US and Europe. As the test is repeated, the rats learn the location of the escape platform. The rats were allowed to learn using the method described below. Namely, after releasing a rat from the starting point of the Morris water maze test apparatus, if the rat was unable to reach the escape platform within 60 seconds, the rat was placed on the escape platform, thereby enabling it to learn the location of the unseen escape platform. This learning process was continued for 2 weeks no more than twice a day. The percentage of the amount of time required to swim from the starting point to the escape platform within an angular deviation range of ±15° to the total swimming time (Hit %, see FIG. 2) was used as an indicator of learning. […] In FIG. 3, each graduation on the scale of the horizontal axis represents four trials, or two days worth of testing.
Next, in order to determine the degree of learning acquisition, a probe test was conducted on the day after two weeks of the aforementioned learning, namely on day 15. If the escape platform is taken away after the rats have acquired learning, the rats swim around at the location where the escape platform used to be. The time during which the rats swim around at the former location of the escape platform based on the memory of where it used to be (evaluated by dividing the water tank into four quadrants and evaluated as the amount of time (seconds) spent in the quadrant where the escape platform used to be) can used to evaluate the degree of learning acquisition. The paths swam by the No. 1 and No. 2 rats of the YC group, OA group and OC group are shown (FIG. 4). Furthermore, as the rats were allowed to learn by changing the starting points for individual rats, the starting point (S) and quadrant where the escape platform used to be in FIG. 4 differ according to individual rats. […]

hippocampus LTP = conditions: 22-month-old rats, arachidonic acid diet 10 mg/rat/day for 8 weeks; versus 4-month-old young rats; cited from earlier work

| Structure (SMILES) | absorption (old male Fischer rats; Example 4, inferred from the probe test at the same ingested amount of arachidonic acid) | time spent in the quadrant (¼) where the escape platform used to be, mean±standard deviation (old male Fischer rats; Example 4, 40 mg arachidonic acid/rat/day, group OA 6 animals, group 8A8 8 animals) [s] | degree of learning acquisition (old male Fischer rats; Example 4, old rats, comparison between TGA40S and 8A8 and with young rats) | time spent in the quadrant (¼) where the escape platform used to be, mean±standard deviation (old male Fischer rats; Example 5, arachidonic acid per rat per day: 8A8 diet 40 g (so in the source), 8A8-containing oil or fat diet 13.2 mg) [s] | hippocampus LTP levels (hippocampus LTP) |
| --- | --- | --- | --- | --- | --- |
| CCCCC/C=C\C/C=C\C/C=C\C/C=C\CCCC(=O)OC(COC(=O)CCCCCCC)COC(=O)CCCCCCC [8A8, 1,3-capryloyl-2-arachidonoyl-glycerol] | more easily absorbed than TGA40S | 27.18 ± 5.10 | tended to result in a higher degree of learning acquisition | 27.00 ± 4.65 | – |
| CCCCC/C=C\C/C=C\C/C=C\C/C=C\CCCC(=O)O [arachidonic acid] | – | – | – | – | recovery to the level of young rats |
